Measurements as given in US20080287406A1, “Compositions and methods for treating medical conditions” (priority 2007, published 2008).
Where two headings read alike, the source gives them in different places.

Columns and labels:
CRP = CRP measurements in 14 week blinded, randomized study; assay type: in vivo, human; settings: 3 mg Prednisolone + Placebo, N = 69, ITT (LOCF)
Experimental: CRP is an acute phase response protein whose production is stimulated by cytokines, particularly interleukin-6 (IL-6). The relationship between inflammatory processes and elevation in plasma CRP and pro-inflammatory cytokines is well known. Typically a serum CRP level of >3 mg/L is considered elevated. Serum CRP levels can be measured by standard techniques known in the art, e.g., ELISA assays (Kamiya Biomedical Co., Seattle, Wash.).
We conducted a 14 week blinded, randomized study including a split dose corticosteroid therapy or placebo, with regular CRP and inflammatory cytokine measurements. The study population had active rheumatoid arthritis.
(§1) Screening Visit • Day 1 (Baseline Visit)—Start of Run-In Period • Day 14 (±2 days)—End of Run-In Period/Start of Treatment Period • Day 42 (±2 days) • Day 70 (±2 days)—End of Treatment Period/Start of Withdrawal Period • Day 98 (±2 days)—End of Study
The powered study ended after these first 10 weeks. […] A schematic of the study design is shown below.

[1] = system: active rheumatoid arthritis; settings: 3 mg Prednisolone + Placebo, N = 69, ITT (LOCF)
Text: A visual analog scale (VAS) provides a measure of a one-dimensional quantity. A VAS generally utilizes a representation of distance, such as a picture of a line with hash marks drawn at regular distance intervals, e.g., ten 1-cm intervals. […] This procedure provides a simple and rapid approach to obtaining quantitative information about how the patient is experiencing pain. VAS scales can also be used, e.g., to measure fatigue. VAS scales and their use are described, e.g., in U.S. Pat. Nos. 6,709,406 and 6,432,937.
We conducted a 14 week blinded, randomized study including a split dose corticosteroid therapy or placebo, with regular CRP and inflammatory cytokine measurements. The study population had active rheumatoid arthritis. The subject must otherwise have been in good general health.
as §1
All eligible subjects received DMARD therapy in a stable dose. Subjects were evaluated for study eligibility at the Screening visit, which was conducted within 14 days before the first dose of study drug. The subject provided written informed consent to participate in the study before any Screening laboratory samples were collected or evaluations performed.
All subjects were given 3 mg prednisolone alone for 2 weeks (Run-In Period). Subjects were then randomized into treatment groups to additionally receive 10 mg paroxetine, 20 mg paroxetine or placebo tablets for 8 weeks (Combination Treatment Period). The powered study ended after these first 10 weeks. All subjects continued in an un-powered part of the study for an additional 4 weeks (Withdrawal Period). In this portion of the study, half of the subjects on 10 mg or 20 mg paroxetine plus 3 mg prednisolone stopped taking paroxetine, and instead took 3 mg prednisolone plus placebo, while the other half stopped taking prednisolone, and instead took either dose of paroxetine plus placebo. Similarly, half of the subjects on prednisolone plus placebo stopped the prednisolone, and instead took two placebo tablets, while the other half continued the regimen of 3 mg prednisolone plus placebo. A schematic of the study design is shown below.

Compound: C[C@]12C=CC(=O)C=C1CC[C@@H]1[C@@H]2[C@@H](O)C[C@@]2(C)[C@H]1CC[C@]2(O)C(=O)CO [Prednisolone, prednisolone]
- CRP % Change from baseline, Mean (CRP; Day 14): 7.11%
- CRP Change from baseline, Mean (CRP; Day 14): −7.40
- CRP Value, Mean (CRP; Day 14): 11.42
- CRP % Change from baseline, Mean (CRP; Day 42): −17.67%
- CRP Change from baseline, Mean (CRP; Day 42): −8.61
- CRP Value, Mean (CRP; Day 42): 10.22
- CRP % Change from baseline, Mean (CRP; Day 70): −13.66%
- CRP Change from baseline, Mean (CRP; Day 70): −8.95
- CRP Value, Mean (CRP; Day 70): 9.88
- Patient Pain Assessment (VAS) Score % Change from baseline, Mean ([1]; Day 14): −13.65%
- Patient Pain Assessment (VAS) Score Change from baseline, Mean ([1]; Day 14): −7.73
- Patient Pain Assessment (VAS) Score Value, Mean ([1]; Day 14): 45.58
- Patient Pain Assessment (VAS) Score % Change from baseline, Mean ([1]; Day 42): −19.23%
- Patient Pain Assessment (VAS) Score Change from baseline, Mean ([1]; Day 42): −10.57
- Patient Pain Assessment (VAS) Score Value, Mean ([1]; Day 42): 42.74
- Patient Pain Assessment (VAS) Score % Change from baseline, Mean ([1]; Day 70): −17.84%
- Patient Pain Assessment (VAS) Score Change from baseline, Mean ([1]; Day 70): −12.28
- Patient Pain Assessment (VAS) Score Value, Mean ([1]; Day 70): 41.04
